Data reported in patent US6737383B1, “Herbicidal oxadiazolidines” (priority 1999, dated 2004).

What was measured:
bedstraw = experiment: Test B pre/postemergence bedstraw; type: in vivo, Galium aparine; details: Preemergence; for Bedstraw plant response rating: scale 0 to 10, 0 is no effect, 10 is complete control
Outline: (§1)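 Herbicidal effect was estimated by eye on a ten-point control scale after plants spent twelve to sixteen days in a greenhouse following soil or foliar treatment. Foliar sprays targeted plants at one to four leaves; all doses were formulated in a non-phytotoxic solvent with surfactant.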

blackgrass = experiment: Test B pre/postemergence blackgrass; type: in vivo, Alopecurus myosuroides
Outline: as §1

surinam grass = experiment: Test B pre/postemergence surinam grass; type: in vivo, Brachiaria decumbens
Outline: as §1

cocklebur = experiment: Test B pre/postemergence cocklebur; type: in vivo, Xanthium strumarium
Outline: as §1

corn = experiment: Test B pre/postemergence corn; type: in vivo, Zea mays
Outline: as §1

crabgrass = experiment: Test B pre/postemergence crabgrass; type: in vivo, Digitaria sanguinalis
Outline: as §1

giant foxtail = experiment: Test B pre/postemergence giant foxtail; type: in vivo, Setaria faberii
Outline: as §1

morningglory = experiment: Test B pre/postemergence morningglory; type: in vivo, Ipomoea hederacea
Outline: as §1

pigweed = experiment: Test B pre/postemergence pigweed; type: in vivo, Amaranthus retroflexus
Outline: as §1

rape = experiment: Test B pre/postemergence rape; type: in vivo, Brassica napus
Outline: as §1

soybean = experiment: Test B pre/postemergence soybean; type: in vivo, Glycine max
Outline: as §1

sugar beet = experiment: Test B pre/postemergence sugar beet; type: in vivo, Beta vulgaris
Outline: as §1

velvetleaf = experiment: Test B pre/postemergence velvetleaf; type: in vivo, Abutilon theophrasti
Outline: as §1

wheat = experiment: Test B pre/postemergence wheat; type: in vivo, Triticum aestivum
Outline: as §1

wild oat = experiment: Test B pre/postemergence wild oat; type: in vivo, Avena fatua
Outline: as §1

purple nutsedge = experiment: Test B pre/postemergence purple nutsedge; type: in vivo, Cyperus rotundus
Outline: as §1

rice = experiment: Test B flood test rice; type: in vivo, Oryza sativa
Outline: (§2)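 Read-out is a visual response score from 0 (no effect) to 10 (complete control), assigned by comparison with untreated controls. Treatment was applied at the 2-leaf stage, and plants stayed in the greenhouse for twelve to sixteen days before scoring.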

smallflower flatsedge = experiment: Test B flood test smallflower flatsedge; type: in vivo, Cyperus difformis
Outline: as §2

duck salad = experiment: Test B flood test duck salad; type: in vivo, Heteranthera limosa
Outline: as §2

bamyardgrass = experiment: Test B flood test barnyardgrass; type: in vivo, Echinochloa crus-galli
Outline: as §2

[1] = Postemergence, Rate 125 g/ha, scale 0 to 10, 0 is no effect, 10 is complete control
[2] = Postemergence, Rate 250 g/ha, scale 0 to 10
[3] = Postemergence, Rate 500 g/ha, scale 0 to 10, 0 is no effect, 10 is complete control
[4] = Preemergence, Rate 62 g/ha, scale of 0 to 10 where 0 is no effect and 10 is complete control
[5] = Preemergence, Rate 125 g/ha, scale 0 to 10, 0 is no effect, 10 is complete control
[6] = Preemergence, Rate 250 g/ha, scale 0 to 10, 0 is no effect, 10 is complete control
[7] = Preemergence, Rate 500 g/ha, scale 0 to 10, 0 is no effect, 10 is complete control
[8] = Rate 62 g/ha, Postemergence, scale 0 to 10 (0 no effect, 10 complete control)
[9] = Rate 62 g/ha, flood test species, Pre-emergence, visual evaluation after twelve to sixteen days
[10] = Rate 125 g/ha, under heading Pre-emergence, flood test species, visual evaluation after twelve to sixteen days
[11] = Rate 250 g/ha, Pre-emergence (flood test species), scale 0 to 10, 0 is no effect, 10 is complete control
[12] = Rate 500 g/ha, Pre-emergence section of Table B, 0 to 10 scale (0 no effect, 10 complete control)

CC(C)N(C(=O)n1oc(=O)n(CCNC(=O)CCl)c1=O)c1ccccc1 [Compound 492]
Plant response rating, Bedstraw (bedstraw; Rate 62 g/ha, scale of 0 to 10 where 0 is no effect and 10 is complete control): 0
Bedstraw plant response rating (bedstraw; Rate 125 g/ha): 0
Bedstraw plant response rating (bedstraw; Rate 250 g/ha): 0
Bedstraw plant response rating (bedstraw; Rate 500 g/ha): 0
Blackgrass plant response rating (blackgrass; [1]): 0
Blackgrass plant response rating (blackgrass; [2]): 0
Plant response rating, Blackgrass (blackgrass; [3]): 0
Plant response rating, Blackgrass (blackgrass; [4]): 0
Blackgrass plant response rating (blackgrass; [5]): 0
Blackgrass plant response rating (blackgrass; [6]): 0
Blackgrass plant response rating (blackgrass; [7]): 0
Blackgrass plant response rating (blackgrass; [8]): 0
B. signalgrass plant response rating (surinam grass; [1]): 0
B. signalgrass plant response rating (surinam grass; Postemergence, Rate 250 g/ha, scale 0 to 10, 0 no effect, 10 complete control): 0
Plant response rating, B. signalgrass (surinam grass; [3]): 0
Plant response rating, B. signalgrass (surinam grass; [4]): 0
B. signalgrass plant response rating (surinam grass; [5]): 0
B. signalgrass plant response rating (surinam grass; [6]): 0
B. signalgrass plant response rating (surinam grass; [7]): 0
B. signalgrass plant response rating (surinam grass; [8]): 0
Cocklebur plant response rating (cocklebur; [1]): 0
Cocklebur plant response rating (cocklebur; [2]): 0
Plant response rating, Cocklebur (cocklebur; [3]): 0
Plant response rating, Cocklebur (cocklebur; [4]): 0
Cocklebur plant response rating (cocklebur; [5]): 0
Cocklebur plant response rating (cocklebur; [6]): 0
Cocklebur plant response rating (cocklebur; [7]): 0
Cocklebur plant response rating (cocklebur; [8]): 0
Corn plant response rating (corn; [1]): 0
Corn plant response rating (corn; [2]): 0
Plant response rating, Corn (corn; [3]): 0
Plant response rating, Corn (corn; [4]): 0
Corn plant response rating (corn; [5]): 0
Corn plant response rating (corn; [7]): 0
Corn plant response rating (corn; [8]): 0
Crabgrass plant response rating (crabgrass; [2]): 0
Plant response rating, Crabgrass (crabgrass; [3]): 0
Plant response rating, Crabgrass (crabgrass; [4]): 0
Crabgrass plant response rating (crabgrass; [5]): 0
Crabgrass plant response rating (crabgrass; [7]): 3
Crabgrass plant response rating (crabgrass; [8]): 0
Giant foxtail plant response rating (giant foxtail; [1]): 0
Plant response rating, Giant foxtail (giant foxtail; [3]): 0
Plant response rating, Giant foxtail (giant foxtail; [4]): 2
Giant foxtail plant response rating (giant foxtail; [5]): 0
Giant foxtail plant response rating (giant foxtail; [7]): 9
Giant foxtail plant response rating (giant foxtail; [8]): 0
Morningglory plant response rating (morningglory; [1]): 5
Plant response rating, Morningglory (morningglory; [3]): 8
Plant response rating, Morningglory (morningglory; [4]): 0
Morningglory plant response rating (morningglory; [5]): 0
Morningglory plant response rating (morningglory; [7]): 0
Morningglory plant response rating (morningglory; [8]): 0
Redroot pigweed plant response rating (pigweed; [1]): 0
Plant response rating, Redroot pigweed (pigweed; [3]): 7
Plant response rating, Redroot pigweed (pigweed; [4]): 0
Redroot pigweed plant response rating (pigweed; [5]): 0
Redroot pigweed plant response rating (pigweed; [7]): 0
Redroot pigweed plant response rating (pigweed; [8]): 0
Rape plant response rating (rape; [1]): 0
Plant response rating, Rape (rape; [3]): 0
Plant response rating, Rape (rape; [4]): 0
Rape plant response rating (rape; [5]): 0
Rape plant response rating (rape; [7]): 0
Rape plant response rating (rape; [8]): 0
Soybean plant response rating (soybean; [1]): 0
Plant response rating, Soybean (soybean; [3]): 0
Plant response rating, Soybean (soybean; [4]): 0
Soybean plant response rating (soybean; [5]): 0
Soybean plant response rating (soybean; [7]): 0
Soybean plant response rating (soybean; [8]): 0
Sugarbeets plant response rating (sugar beet; [1]): 0
Plant response rating, Sugarbeets (sugar beet; [3]): 0
Plant response rating, Sugarbeets (sugar beet; [4]): 0
Sugarbeets plant response rating (sugar beet; [5]): 0
Sugarbeets plant response rating (sugar beet; [7]): 0
Sugarbeets plant response rating (sugar beet; [8]): 0
Velvetleaf plant response rating (velvetleaf; [1]): 0
Plant response rating, Velvetleaf (velvetleaf; [3]): 0
Plant response rating, Velvetleaf (velvetleaf; [4]): 0
Velvetleaf plant response rating (velvetleaf; [5]): 0
Velvetleaf plant response rating (velvetleaf; [7]): 4
Velvetleaf plant response rating (velvetleaf; [8]): 0
Wheat plant response rating (wheat; [1]): 0
Plant response rating, Wheat (wheat; [3]): 0
Plant response rating, Wheat (wheat; [4]): 0
Wheat plant response rating (wheat; [5]): 0
Wheat plant response rating (wheat; [7]): 0
Wheat plant response rating (wheat; [8]): 0
Wild oats plant response rating (wild oat; [1]): 0
Plant response rating, Wild oats (wild oat; [3]): 0
Plant response rating, Wild oats (wild oat; [4]): 0
Wild oats plant response rating (wild oat; [5]): 0
Wild oats plant response rating (wild oat; [7]): 0
Wild oats plant response rating (wild oat; [8]): 0
Nutsedge plant response rating (purple nutsedge; [1]): 0
Plant response rating, Nutsedge (purple nutsedge; [3]): 0
Plant response rating, Nutsedge (purple nutsedge; [4]): 0
Nutsedge plant response rating (purple nutsedge; [5]): 0
Nutsedge plant response rating (purple nutsedge; [7]): 0
Nutsedge plant response rating (purple nutsedge; [8]): 0
Plant response rating, Rice (0 to 10 scale, 0 is no effect, 10 is complete control) (rice; [9]): 0
Rice plant response rating (0 to 10 scale, 0 is no effect, 10 is complete control) (rice; [10]): 0
Rice plant response rating (rice; [11]): 0
Rice plant response rating (rice; [12]): 0
Plant response rating, S. Flatsedge (0 to 10 scale, 0 is no effect, 10 is complete control) (smallflower flatsedge; [9]): 0
S. Flatsedge plant response rating (0 to 10 scale, 0 is no effect, 10 is complete control) (smallflower flatsedge; [10]): 0
S. Flatsedge plant response rating (smallflower flatsedge; [11]): 0
S. Flatsedge plant response rating (smallflower flatsedge; [12]): 0
Plant response rating, Ducksalad (0 to 10 scale, 0 is no effect, 10 is complete control) (duck salad; [9]): 0
Ducksalad plant response rating (0 to 10 scale, 0 is no effect, 10 is complete control) (duck salad; [10]): 0
Ducksalad plant response rating (duck salad; [11]): 0
Ducksalad plant response rating (duck salad; [12]): 0
Plant response rating, Barnyardgrass (0 to 10 scale, 0 is no effect, 10 is complete control) (bamyardgrass; [9]): 0
Barnyardgrass plant response rating (0 to 10 scale, 0 is no effect, 10 is complete control) (bamyardgrass; [10]): 0
Barnyardgrass plant response rating (bamyardgrass; [11]): 0
Barnyardgrass plant response rating (bamyardgrass; [12]): 0
